These results are taken from ChEMBL document CHEMBL1147855, “Synthesis and evaluation of sulfonylurea derivatives as novel antimalarials” (Eur J Med Chem, 2007).

In one assay the test system is Mus musculus. Nature of the assay: Survival of NIH mice (Mus musculus) infected with Plasmodium berghei ANKA infected erythrocytes at 20 mg/kg, intraperitoneal after 4 days by Peter's test. It is filed as functional.
A further assay has as its system Plasmodium falciparum. Nature of the assay: Antimalarial activity against chloroquine-resistant Plasmodium falciparum W2 after 48 hrs by FACS. The format is functional, organism-based. Conditions: W2, 48 h. A general note: A flow cytometer gives signals particle by particle.
The test system of another assay is Plasmodium berghei. The assay is described as follows: Antimalarial activity against Plasmodium berghei ANKA at 20 mg/kg intraperitoneal dose as reduced parasitaemia by Peter's assay. The format is functional. Set-up: scale not given: the % may be the effect or the level left.
Assay [1] in a line: Inhibition of hemoglobin hydrolysis in mouse erythrocytes at 5 mM after 18 hrs relative to control. The format is cell-based. The conditions noted are these: Erythrocyte.

In general, IC50 refers to the concentration needed to halve the response being measured. Usually inhibition stands for the relative decrease from the control value, in per cent. In the assay on Mus musculus, `COc1cc(/C=C/C(=O)c2ccc(NC(=O)NS(=O)(=O)c3ccc(Cl)cc3)cc2)cc(OC)c1OC` gave a Survival of 1.83 days. The IC50 with Plasmodium falciparum turned out to be 9.4 µM. The Activity in the assay with Plasmodium berghei was found to be 8%. The inhibition at 5000 µM in assay [1] amounted to 36.7%.
`Cc1ccc(S(=O)(=O)NC(=O)Nc2ccc(C(=O)/C=C/c3ccc4c(c3)OCO4)cc2)cc1` showed an IC50 in the assay with Plasmodium falciparum of 9.6 µM.
`Cc1ccc(S(=O)(=O)NC(=O)Nc2ccc(C(=O)/C=C/c3cc4ccccc4nc3Cl)cc2)cc1`: 9.6 µM corresponded to half-maximal inhibition with Plasmodium falciparum (IC50).
`Cc1ccc(S(=O)(=O)NC(=O)Nc2ccc(C(=O)/C=C/c3ccc(F)cc3F)cc2)cc1` showed a Survival in the assay on Mus musculus of 1 days. This compound also displayed a 50% inhibitory concentration (IC50) in the assay on Plasmodium falciparum of 1.2 µM. Moreover, in the assay on Plasmodium berghei, the Activity was found to be 15.2%. For the same compound, at 5000 µM the inhibition in assay [1] was 90.3%.
Consider `O=C(Nc1ccc(C(=O)/C=C/c2ccc(F)cc2F)cc1)NS(=O)(=O)c1ccc(Cl)cc1`, for which, in the assay with Mus musculus, the Survival came out at 3 days. In addition, the half-maximal inhibitory concentration (IC50) with Plasmodium falciparum worked out at 2.1 µM. Moreover, the Activity in the assay with Plasmodium berghei is listed as 5.2%.
Regarding `CC(=O)N[C@@H](CC(C)C)C(=O)N[C@@H](CC(C)C)C(=O)N[C@H](C=O)CCCNC(=N)N` [LEUPEPTIN], the inhibition at 5000 µM in assay [1] turned out to be 87%.
Regarding `O=C(Nc1ccc(C(=O)/C=C/c2ccc3c(c2)OCO3)cc1)NS(=O)(=O)c1ccc(Cl)cc1`, the Survival in the assay on Mus musculus came out at 2.16 days. Further, it took 9.7 µM to reach half-maximal inhibition with Plasmodium falciparum (IC50). Moreover, the Activity in the assay with Plasmodium berghei came to 3.4%. At 5000 µM the inhibition in assay [1] was 50.6%.
On to `Cc1ccc(S(=O)(=O)NC(=O)Nc2ccc(C(=O)/C=C/c3ccc(F)cc3)cc2)cc1`, for which the IC50 in the assay on Plasmodium falciparum turned out to be 10 µM.
Same read-out and setting: for `COc1cc2cc(/C=C/C(=O)c3ccc(NC(=O)NS(=O)(=O)c4ccc(C)cc4)cc3)c(Cl)nc2cc1OC` the value was 10 µM; for `COc1cc(/C=C/C(=O)c2ccc(NC(=O)NS(=O)(=O)c3ccc(C)cc3)cc2)cc(OC)c1OC`, 8.8 µM.
As for `O=C(Nc1ccc(C(=O)/C=C/c2ccc(F)cc2)cc1)NS(=O)(=O)c1ccc(Cl)cc1`, the Survival in the assay with Mus musculus amounted to 1 days. The compound also registered a half-inhibitory concentration (IC50) in the assay with Plasmodium falciparum of 10 µM. The compound also had an Activity with Plasmodium berghei of 10.6%. This compound also displayed an inhibition at 5000 µM in assay [1] of 34.5%.
As to `CCN(CC)CCCC(C)Nc1ccnc2cc(Cl)ccc12` (configuration not stated) [CHLOROQUINE], in the assay with Plasmodium berghei, the Activity is 3.66%.
In assay [1], `CC(C)CC(=O)N[C@H](C(=O)N[C@H](C(=O)N[C@@H](CC(C)C)[C@@H](O)CC(=O)N[C@@H](C)C(=O)N[C@@H](CC(C)C)[C@@H](O)CC(=O)O)C(C)C)C(C)C` [PEPSTATIN] registered an inhibition at 5000 µM of 91.9%.
